Test system: Male C57 mice
Assay: Forced Swim Test
Format: in vivo
Conditions: 10 mg/kg, intraperitoneally, 0.5h after administration; compared to the solvent control group; Figure 1
Description: Drugs to be tested: The compounds of the present invention and the positive control compound (vortioxetine) were mixed with 5% DMSO, then mixed with 5% Solutol® HS 15, and then 90% physiological saline was added to prepare a solution of appropriate concentration. The solution was prepared immediately before use.
Animal: Male C57 mice, approximately 22g. Animals were randomly divided into a blank control group and each test drug group, with 8 animals in each group. Mice in each group were intraperitoneally injected with either the solvent or the test drug.
Experimental Procedure: Forced swimming test was performed on the mice 0.5h after drug administration. The water level in the forced swimming device was 45cm, and the water temperature was 25°C. The mice were placed in the experimental room for 1h to acclimatize before the experiment. Mice were placed in the device at the start of the experiment for 6 minutes, and the entire process was recorded by a camera. Data analysis only considered the immobility time of the mice during the last 4 minutes.

Cc1ccc(Sc2ccccc2N2CCNCC2)c(C)c1 [vortioxetine]
immobility time of mice: significantly reduced the immobility time
